Results taken from patent publication US5723719A, “Transgenic mouse as model for diseases involving dopaminergic dysfunction” (Health Research Inc., priority 1995, dated 1998).
Where two headings read alike, the source gives them in different places.

Tests used:
[1] = system: 6-OHDA-lesioned rodents; settings: cited from earlier work
[2] = target: T1, dopamine D2 receptor (Mus musculus, UniProt P61168); assay: Radioligand binding assay of dopamine D2 receptor binding sites in striatum; settings: mean ± s.e.m., read-out: KD (dissociation constant between ligand and receptor)
T1 construct: from tissue; host or cells: striatum of homozygous transgenic (TgX15, chakragati) mice and normal heterozygous litter-mates
Procedure: Radioligand binding assays were performed to analyze the density of dopamine D2 receptor binding sites in the striatum of mice of the present invention and normal heterozygous mice. […] The density of dopamine D2 binding sites are assayed by the ability of the striata to maximally bind ^[MUT]-methylspiperone (Bmax). Dissociation constants (KD) between the ligand and receptor were also measured.

[3] = system: chakragati mice; assay: Effect of apomorphine treatment on chakragati mice; format: in vivo, mouse; settings: chakragati mice versus normal control mice
[4] = rats unilaterally depleted of dopamine by 6-hydroxydopamine lesions (Ungerstedt 1971)

T1 sequence (P61168 whole entry): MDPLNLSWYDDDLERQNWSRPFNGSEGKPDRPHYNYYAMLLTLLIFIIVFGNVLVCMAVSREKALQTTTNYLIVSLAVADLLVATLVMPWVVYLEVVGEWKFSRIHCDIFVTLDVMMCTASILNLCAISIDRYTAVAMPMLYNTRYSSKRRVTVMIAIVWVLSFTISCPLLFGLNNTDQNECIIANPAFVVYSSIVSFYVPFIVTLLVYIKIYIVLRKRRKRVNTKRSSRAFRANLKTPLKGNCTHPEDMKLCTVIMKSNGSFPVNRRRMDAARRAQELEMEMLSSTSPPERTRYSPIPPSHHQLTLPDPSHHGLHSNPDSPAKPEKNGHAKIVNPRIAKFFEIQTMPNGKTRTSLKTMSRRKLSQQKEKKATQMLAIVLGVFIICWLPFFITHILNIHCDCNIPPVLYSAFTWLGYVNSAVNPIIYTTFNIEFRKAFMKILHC

Structure (SMILES)	Circling behavior elicited [1, 4]	Kd ([2]; striata of heterozygous litter-mates) [nM]	Kd ([2]; striata of homozygous transgenic mice) [nM]	Effect of treatment on chakragati mice compared to normal control mice (circling) [3]	Circling behavior elicited ([1]; 6-OHDA-lesioned rodents)
CC(N)Cc1ccccc1 (stereo not drawn) [amphetamine]	high rates of circling behavior can be elicited				
CN1CN(c2ccccc2)C2(CCN(CCCC(=O)c3ccc(F)cc3)CC2)C1=O [^3 H-N-methylspiperone]		0.073 ± 0.008	0.081 ± 0.013		
CN1CCc2cccc3c2[C@H]1Cc1ccc(O)c(O)c1-3 [apomorphine]	high rates of circling behavior can be elicited			not significantly differ compared to the normal control mice	elicits robust circling behavior
